From patent publication US9790219B2, “Compounds, compositions, and methods for increasing CFTR activity” (Proteostasis Therapeutics, Inc., priority 2014, dated 2017)

Experiments:
ΔF508-CFTR [1] = target: T1, ΔF508-CFTR (Homo sapiens, UniProt P13569, DEL508-508); experiment: Ussing measurements; type: cell-based; conditions: CFTRinh-172 inhibitable short-circuit current, primary hBE homozygous ΔF508, 24 h treatment
T1 construct: Primary lung epithelial cells homozygous for the Cystic Fibrosis-causing ΔF508 mutation; endogenous in cells; host or cells: primary human lung (bronchial) epithelial cells homozygous for ΔF508, differentiated at air-liquid interface
Method: As discussed above, Ussing measurements can be used to measure CFTR activity. In this method, primary lung epithelial cells (hBEs) homozygous for the Cystic Fibrosis-causing ΔF508 mutation are differentiated for a minimum of 4 weeks in an air-liquid interface on SnapWell filter plates prior to the Ussing measurements. Cells are apically mucus-washed for 30 minutes prior to treatment with compounds. The basolateral media is removed and replaced with media containing the compound of interest diluted to its final concentration from DMSO stocks. Treated cells are incubated at 37° C. and 5% CO2 for 24 hours. At the end of the treatment period, the cells on filters are transferred to the Ussing chamber and equilibrated for 30 minutes. The short-circuit current is measured in voltage clamp-mode (Vhold=0 mV), and the entire assay is conducted at a temperature of 36° C.-36.5° C. Once the voltages stabilized, the chambers are clamped, and data is recorded by pulse readings every 5 seconds. Following baseline current stabilization, the following additions can be applied and the changes in current and resistance of the cells can be monitored: • 1. Benzamil to the apical chamber to inhibit ENaC sodium channel. • 2. Forskolin to both chambers to activate ΔF508-CFTR by phosphorylation. • 3. Genistein to both chambers to potentiate ΔF508-CFTR channel opening. • 4. CFTRinh-172 to the apical chamber to inhibit ΔF508-CFTR Cl-conductance.
The inhibitable current (that current that is blocked by CFTRinh-172) is measured as the specific activity of the ΔF508-CFTR channel, and increases in response to compound in this activity over that observed in vehicle-treated samples are identified as the correction of ΔF508-CFTR function imparted by the compound tested.

ΔF508-CFTR [2] = target: T1, ΔF508-CFTR; experiment: hBE equivalent current (Ieq) assay; type: cell-based; conditions: AUC of equivalent chloride current, primary hBE homozygous ΔF508, 24 h treatment
Method: Primary lung epithelial cells homozygous for the Cystic Fibrosis-causing ΔF508 mutation were differentiated for a minimum of 4 weeks in an air-liquid interface on Costar 24 well HTS filter plates prior to the equivalent current (Ieq) measurements. Cells were apically mucus-washed for 30 minutes 24 h prior to treatment with compounds. The basolateral media was removed and replaced with media containing the compound of interest diluted to its final concentration from DMSO stocks. Treated cells were incubated at 37° C. and 5% CO2 for 24 hours. At the end of the treatment period, the media was changed to the Ieq experimental solution for 30 minutes before the experiment and plates are maintained in a CO2-free incubator during this period. The plates containing the cells were then placed in pre-warmed heating blocks at 36° C.±0.5 for 15 minutes before measurements are taken. The transepithelial voltage (VT) and conductance (GT) were measured using a custom 24 channel current clamp (TECC-24) with 24 well electrode manifold. The Ieq assay measurements were made following additions with standardized time periods: • 1. The baseline VT and GT values were measured for approximately 20 minutes. • 2. Benzamil was added to block ENaC for 15 minutes. • 3. Forskolin plus VX-770 were added to maximally activate ΔF508-CFTR for 27 minutes. • 4. Bumetanide was added to inhibit the NaK2Cl cotransporter and shut-off secretion of chloride.
The activity data captured was the area under the curve (AUC) for the traces of the equivalent chloride current. The AUC was collected from the time of the forskolin/VX-770 addition until the inhibition by bumetanide addition. Correction in response to compound treatment was scored as the increase in the AUC for compound-treated samples over that of vehicle-treated samples. The results are shown below in Table 2 (++indicates activity ≧25% run at 10 uM of VX-809 at 1 uM; +indicates activity 10 to <25% run at 10 uM of VX-809 at 1 uM; ** indicates activity ≧200% of VX-809 (1 uM) with compound at 10 uM and VX-809 at 1 uM; * indicates activity 100-200% of VX-809 (1 uM) with compound at 10 uM and VX-809 at 1 uM)

[3] = compound alone at 10 uM, relative to VX-809 at 1 uM
[4] = compound at 10 uM together with VX-809 at 1 uM, relative to VX-809 (1 uM)

T1 sequence (P13569 with tags, fused parts or gaps DEL508-508): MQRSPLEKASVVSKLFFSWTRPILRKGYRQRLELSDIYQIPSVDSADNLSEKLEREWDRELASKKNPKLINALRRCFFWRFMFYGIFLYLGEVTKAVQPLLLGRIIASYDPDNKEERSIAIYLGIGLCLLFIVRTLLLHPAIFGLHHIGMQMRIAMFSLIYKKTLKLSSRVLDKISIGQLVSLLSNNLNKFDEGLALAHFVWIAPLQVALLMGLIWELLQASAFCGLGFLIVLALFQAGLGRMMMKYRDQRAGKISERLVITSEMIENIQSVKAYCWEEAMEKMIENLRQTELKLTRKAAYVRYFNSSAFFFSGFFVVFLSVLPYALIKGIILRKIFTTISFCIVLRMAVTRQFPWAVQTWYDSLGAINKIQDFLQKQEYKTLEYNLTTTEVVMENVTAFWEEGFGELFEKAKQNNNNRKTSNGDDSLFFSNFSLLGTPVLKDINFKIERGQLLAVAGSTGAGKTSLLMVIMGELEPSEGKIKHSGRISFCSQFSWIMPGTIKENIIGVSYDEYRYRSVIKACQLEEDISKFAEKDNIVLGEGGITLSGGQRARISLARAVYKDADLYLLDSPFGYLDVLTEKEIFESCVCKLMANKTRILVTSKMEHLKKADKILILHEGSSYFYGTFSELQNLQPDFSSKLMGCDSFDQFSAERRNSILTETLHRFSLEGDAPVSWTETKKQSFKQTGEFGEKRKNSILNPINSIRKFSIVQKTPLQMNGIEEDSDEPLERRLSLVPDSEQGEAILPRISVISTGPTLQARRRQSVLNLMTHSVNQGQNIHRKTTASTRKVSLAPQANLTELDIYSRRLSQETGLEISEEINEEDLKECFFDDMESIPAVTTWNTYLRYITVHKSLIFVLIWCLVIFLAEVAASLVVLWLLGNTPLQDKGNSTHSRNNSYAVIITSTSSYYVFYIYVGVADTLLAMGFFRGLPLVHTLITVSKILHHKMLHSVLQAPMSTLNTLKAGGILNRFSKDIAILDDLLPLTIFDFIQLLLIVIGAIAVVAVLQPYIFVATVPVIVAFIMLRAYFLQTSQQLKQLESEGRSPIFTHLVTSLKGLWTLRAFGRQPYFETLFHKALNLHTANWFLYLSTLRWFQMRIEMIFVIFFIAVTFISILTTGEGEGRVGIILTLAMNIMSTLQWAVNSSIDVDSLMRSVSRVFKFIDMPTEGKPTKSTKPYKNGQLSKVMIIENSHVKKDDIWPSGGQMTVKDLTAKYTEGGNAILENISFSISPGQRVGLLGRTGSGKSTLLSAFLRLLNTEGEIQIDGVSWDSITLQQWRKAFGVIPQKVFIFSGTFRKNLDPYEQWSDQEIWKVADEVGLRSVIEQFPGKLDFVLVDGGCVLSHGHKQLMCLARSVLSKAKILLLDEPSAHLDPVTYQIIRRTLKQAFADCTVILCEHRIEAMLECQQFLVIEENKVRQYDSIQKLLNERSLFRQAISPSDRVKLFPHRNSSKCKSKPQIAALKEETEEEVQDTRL

Row | SMILES | Ussing (ΔF508-CFTR [1]; [3]) | Ussing (ΔF508-CFTR [1]; [4]) | Ieq Activity (ΔF508-CFTR [2]; [3]) | Ieq Activity (ΔF508-CFTR [2]; [4])
1 | O=C(NCCc1nnc(CO)s1)c1cc(-c2ccccc2)on1 [Compound A2, N-(2-(5-(hydroxymethyl)-1,3,4-thiadiazol-2-yl)ethyl)-5-phenylisoxazole-3-carboxamide] | ++ (++indicates activity ≧25% run at 10 uM of VX-809 at 1 uM) | ** (** indicates activity ≧200% of VX-809 (1 uM) with compound at 10 uM and VX-809 at 1 uM) | ++ (++indicates activity ≧25% run at 10 uM of VX-809 at 1 uM) | ** (** indicates activity ≧200% of VX-809 (1 uM) with compound at 10 uM and VX-809 at 1 uM)
2 | O=C(NCCc1nnc([C@@H](O)CO)s1)c1cc(-c2ccccc2)on1 [Compound A21, (S)-N-(2-(5-(1,2-dihydroxyethyl)-1,3,4-thiadiazol-2-yl)ethyl)-5-phenyl isoxazole-3-carboxamide] | – | ** (** indicates activity ≧200% of VX-809 (1 uM) with compound at 10 uM and VX-809 at 1 uM) | – | ** (** indicates activity ≧200% of VX-809 (1 uM) with compound at 10 uM and VX-809 at 1 uM)
3 | O=C(NCCc1nnc([C@H](O)CO)o1)c1cc(-c2ccccc2)on1 [Compound A19, (R)-N-(2-(5-(1,2-dihydroxyethyl)-1,3,4-oxadiazol-2-yl)ethyl)-5-phenylisoxazole-3-carboxamide] | – | ** (** indicates activity ≧200% of VX-809 (1 uM) with compound at 10 uM and VX-809 at 1 uM) | – | ** (** indicates activity ≧200% of VX-809 (1 uM) with compound at 10 uM and VX-809 at 1 uM)
4 | C[C@H](O)c1nnc(CCNC(=O)c2cc(-c3ccccc3)on2)s1 [Compound A17, (S)-N-(2-(5-(1-hydroxyethyl)-1,3,4-thiadiazol-2-yl)ethyl)-5-phenylisoxazole-3-carboxamide] | – | ** (** indicates activity ≧200% of VX-809 (1 uM) with compound at 10 uM and VX-809 at 1 uM) | – | ** (** indicates activity ≧200% of VX-809 (1 uM) with compound at 10 uM and VX-809 at 1 uM)
5 | O=C(NCCc1nnc([C@H](O)CO)s1)c1cc(-c2ccccc2)on1 [Compound A20, (R)-N-(2-(5-(1,2-dihydroxyethyl)-1,3,4-thiadiazol-2-yl)ethyl)-5-phenylisoxazole-3-carboxamide] | – | ** (** indicates activity ≧200% of VX-809 (1 uM) with compound at 10 uM and VX-809 at 1 uM) | – | ** (** indicates activity ≧200% of VX-809 (1 uM) with compound at 10 uM and VX-809 at 1 uM)
6 | O=C(NCCc1nnc(CO)o1)c1cc(-c2ccccc2)on1 [Compound A1, N-(2-(5-(hydroxymethyl)-1,3,4-oxadiazol-2-yl)ethyl)-5-phenylisoxazole-3-carboxamide] | ++ (++indicates activity ≧25% run at 10 uM of VX-809 at 1 uM) | ** (** indicates activity ≧200% of VX-809 (1 uM) with compound at 10 uM and VX-809 at 1 uM) | ++ (++indicates activity ≧25% run at 10 uM of VX-809 at 1 uM) | ** (** indicates activity ≧200% of VX-809 (1 uM) with compound at 10 uM and VX-809 at 1 uM)
7 | O=C(NCCc1nnc([C@@H](O)CO)o1)c1cc(-c2ccccc2)on1 [Compound A22, (S)-N-(2-(5-(1,2-dihydroxyethyl)-1,3,4-oxadiazol-2-yl)ethyl)-5-phenyl isoxazole-3-carboxamide carboxamide] | – | ** (** indicates activity ≧200% of VX-809 (1 uM) with compound at 10 uM and VX-809 at 1 uM) | – | ** (** indicates activity ≧200% of VX-809 (1 uM) with compound at 10 uM and VX-809 at 1 uM)
